Measurements published in patent US9113629B2, “4-amino-6-(4-substituted-phenyl)-picolinates and 6-amino-2-(4-substituted-phenyl)-pyrimidine-4-carboxylates and their use as herbicides” (DOW AGROSCIENCES LLC, priority 2013, dated 2015).
Like-named read-outs stand apart in the source and are kept apart here.

Key:
[1] = tested on: Key Broadleaf Weed and Crop Species; assay: Post-emergent Test II herbicidal activity (Table 5); assay type: in vivo; settings: post-emergence, 336 h, 14 days after application; for pest or weed control at 70 g/ha: application rate 70 g ai/ha; for pest or weed control at 140 g/ha: application rate 140 g ai/ha
How it was run: (§1)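 Spray rates: a highest rate plus ½×, ¼×, ⅛×, 1/16×, all delivered at 187 L/ha to plants at the first–second true leaf stage. Readout is a visual percent injury score at 14 d, where 100 means complete kill.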

[2] = tested on: Key Grass and Sedge Weeds as well as Grass Crops; assay: Post-emergent Test II herbicidal activity (Table 6); assay type: in vivo; settings: post-emergence, 336 h; for pest or weed control at 70 g/ha: 70 g ai/ha; for pest or weed control at 140 g/ha: 140 g ai/ha
How it was run: as §1

[3] = ABUTH: velvetleaf (Abutilon theophrasti), read-out: Visual Growth Reduction (%) 14 Days After Application, ABUTH
[4] = AMARE: redroot pigweed (Amaranthus retroflexus), read-out: Visual Growth Reduction (%) 14 Days After Application, AMARE
[5] = BRSNN: oilseed-rape, canola (Brassica napus), read-out: Visual Growth Reduction (%) 14 Days After Application, BRSNN
[6] = CHEAL: lambsquarters (Chenopodium album), read-out: Visual Growth Reduction (%) 14 Days After Application, CHEAL
[7] = EPHHL: wild poinsettia (Euphorbia heterophylla), read-out: Visual Growth Reduction (%) 14 Days After Application, EPHHL
[8] = HELAN: sunflower (Helianthus annuus), read-out: Visual Growth Reduction (%) 14 Days After Application, HELAN
[9] = VIOTR: wild pansy (Viola tricolor), read-out: Visual Growth Reduction (%) 14 Days After Application, VIOTR
[10] = CYPES: yellow nutsedge (Cyperus esculentus), read-out: Visual Growth Reduction (%) 14 Days After Application, CYPES
[11] = DIGSA: crabgrass (Digitaria sanguinalis), read-out: Visual Growth Reduction (%) 14 Days After Application, DIGSA
[12] = ECHCG: barnyardgrass (Echinochloa crus-galli), read-out: Visual Growth Reduction (%) 14 Days After Application, ECHCG
[13] = ORYSA: rice (Oryza sativa), crop, read-out: Visual Growth Reduction (%) 14 Days After Application, ORYSA
[14] = SETFA: giant foxtail (Setaria faberi), read-out: Visual Growth Reduction (%) 14 Days After Application, SETFA
[15] = SORVU: grain sorghum (Sorghum vulgare), read-out: Visual Growth Reduction (%) 14 Days After Application, SORVU
[16] = TRZSS (wheat, Triticum aestivum), crop, read-out: Visual Growth Reduction (%) 14 Days After Application, TRZSS
[17] = ZEAMX: maize, corn (Zea mays), crop, read-out: Visual Growth Reduction (%) 14 Days After Application, ZEAMX

| SMILES | pest or weed control at 70 g/ha [1, 3] [%] | pest or weed control at 140 g/ha [1, 3] [%] | pest or weed control at 70 g/ha [1, 4] [%] | pest or weed control at 140 g/ha [1, 4] [%] | pest or weed control at 70 g/ha [1, 5] [%] | pest or weed control at 140 g/ha [1, 5] [%] | pest or weed control at 70 g/ha [1, 6] [%] | pest or weed control at 140 g/ha [1, 6] [%] | pest or weed control at 70 g/ha [1, 7] [%] | pest or weed control at 140 g/ha [1, 7] [%] | pest or weed control at 70 g/ha [1, 8] [%] | pest or weed control at 140 g/ha [1, 8] [%] | pest or weed control at 70 g/ha [1, 9] [%] | pest or weed control at 140 g/ha [1, 9] [%] | pest or weed control at 70 g/ha [2, 10] [%] | pest or weed control at 140 g/ha [2, 10] [%] | pest or weed control at 70 g/ha [2, 11] [%] | pest or weed control at 140 g/ha [2, 11] [%] | pest or weed control at 70 g/ha [2, 12] [%] | pest or weed control at 140 g/ha [2, 12] [%] | also measured |
| --- | --- | --- | --- | --- | --- | --- | --- | --- | --- | --- | --- | --- | --- | --- | --- | --- | --- | --- | --- | --- | --- |
| C#Cc1ccc(-c2nc(C(=O)O)c(Cl)c(N)c2F)cc1F [Compound 71] | 0 to 29 | 45 to 59 | 60 to 74 | 75 to 84 | 45 to 59 | 45 to 59 | 85 to 94 | 85 to 94 | 95 to 100 | 95 to 100 | 60 to 74 | 75 to 84 | 0 to 29 | 0 to 29 | 0 to 29 | 0 to 29 | 60 to 74 | 45 to 59 | 85 to 94 | 85 to 94 | pest or weed control at 70 g/ha [2, 13]: 0 to 29%; pest or weed control at 140 g/ha [2, 13]: 0 to 29%; pest or weed control at 70 g/ha [2, 14]: 60 to 74%; pest or weed control at 140 g/ha [2, 14]: 60 to 74%; pest or weed control at 70 g/ha [2, 15]: 30 to 44%; pest or weed control at 140 g/ha [2, 15]: 45 to 59%; pest or weed control at 70 g/ha [2, 16]: 30 to 44%; pest or weed control at 140 g/ha [2, 16]: 45 to 59%; pest or weed control at 70 g/ha [2, 17]: 95 to 100%; pest or weed control at 140 g/ha [2, 17]: 95 to 100%; melting point: 157 to 160 °C (dec.) |
| COc1c(N)nc(-c2ccc(I)cc2F)nc1C(=O)O [Compound 72] | 85 to 94 | 85 to 94 | 95 to 100 | 95 to 100 | 85 to 94 | 85 to 94 | 95 to 100 | 95 to 100 | 95 to 100 | 95 to 100 | 95 to 100 | 95 to 100 | 60 to 74 | 60 to 74 | 0 to 29 | 95 to 100 | 45 to 59 | 60 to 74 | 95 to 100 | 95 to 100 | pest or weed control at 70 g/ha [2, 13]: 0 to 29%; pest or weed control at 140 g/ha [2, 13]: 0 to 29%; pest or weed control at 70 g/ha [2, 14]: 45 to 59%; pest or weed control at 140 g/ha [2, 14]: 75 to 84%; pest or weed control at 70 g/ha [2, 15]: 85 to 94%; pest or weed control at 140 g/ha [2, 15]: 95 to 100%; pest or weed control at 70 g/ha [2, 16]: 60 to 74%; pest or weed control at 140 g/ha [2, 16]: 60 to 74%; pest or weed control at 70 g/ha [2, 17]: 60 to 74%; pest or weed control at 140 g/ha [2, 17]: 60 to 74%; melting point: 95 to 98 °C |
| COC(=O)c1nc(-c2ccc(I)cc2F)nc(N)c1OC [Compound 82] | 95 to 100 | 95 to 100 | 95 to 100 | 95 to 100 | 85 to 94 | 85 to 94 | 85 to 94 | 95 to 100 | 95 to 100 | 95 to 100 | 95 to 100 | 95 to 100 | 60 to 74 | 75 to 84 | 95 to 100 | 95 to 100 | 0 to 29 | 0 to 29 | 45 to 59 | 85 to 94 | pest or weed control at 70 g/ha [2, 13]: 0 to 29%; pest or weed control at 140 g/ha [2, 13]: 0 to 29%; pest or weed control at 70 g/ha [2, 14]: 0 to 29%; pest or weed control at 140 g/ha [2, 14]: 0 to 29%; pest or weed control at 70 g/ha [2, 15]: 0 to 29%; pest or weed control at 140 g/ha [2, 15]: 45 to 59%; pest or weed control at 70 g/ha [2, 16]: 30 to 44%; pest or weed control at 140 g/ha [2, 16]: 30 to 44%; pest or weed control at 70 g/ha [2, 17]: 95 to 100%; pest or weed control at 140 g/ha [2, 17]: 95 to 100%; melting point: 159 to 162 °C |
